# In publication PMC7413254 (Nature Communications, 2020):
# Read-outs that look alike come from different tables or passages of the source.
# Columns and labels:
# PfCRT [1] = assay: Potential co-substrates tested for influx of VF-6 via PfCRT into the oocyte; type: cell-based, Plasmodium falciparum; set-up: key: X: Compounds that have been tested as potential co-substrates but are not required for influx of VF-6 via PfCRT into the oocyte
# PfCRT^3D7 [2] = target: T1, PfCRT^3D7 (Plasmodium falciparum, UniProt Q8IBZ9); assay: cell-based; type: cell-based; conditions: total [3H]CQ transport; for inhibition at 500 µM: [test solute] = 0.5 mM; for inhibition at 1000 µM: [test solute] = 1 mM; for inhibition at 2000 µM: [test solute] = 2 mM
# Summary of the method: (§1)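 Using pH 5.5 ND96 at 27.5 °C, uptake is followed for 1.5 h, stopped with ice-cold buffer, and quantified as accumulated radioactivity per oocyte after SDS lysis.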
# PfCRT [3] = assay: Test of solutes as potential co-substrates for influx of VF-6 via PfCRT into the oocyte; type: cell-based, Plasmodium falciparum; set-up: key: X: Compounds that have been tested as potential co-substrates but are not required for influx of VF-6 via PfCRT into the oocyte; conditions: X = tested
# PfCRT^Ecu1110 [4] = target: T2, PfCRT^Ecu1110 (Plasmodium falciparum, UniProt Q9N623, A220S/I356L/K76T/N326D); assay: [3H]CQ uptake into Xenopus oocytes, cis-inhibition by unlabelled solute; type: cell-based
# Summary of the method: as §1
# PfCRT^Dd2 [5] = target: T3, PfCRT^Dd2 (Plasmodium falciparum, UniProt Q9N623, A220S/I356T/K76T/M74I/N326S/N75E/Q271E/R371I); assay: as above; type: cell-based
# Summary of the method: as §1
# non-expressing oocytes [6] = type: cell-based, Xenopus laevis; conditions: total [3H]CQ transport; for Uptake of [3H]CQ (% non-expressing oocyte control), trans-stimulation: non-expressing oocytes, normalised to the oocyte type control; for Uptake of [3H]CQ (% PfCRTDd2 control), trans-stimulation, non-expressing oocytes: mean ± SEM, SEM
# Summary of the method: (§2)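 Oocytes (ten per treatment, ≥4 independent frogs/days) were preloaded by injecting VF-6 in 25 nL ND96 at pH 5.0, 5.5, 6.0 or 7.0, or Na^+-free choline buffer, then uptake run 1.5 h, 27.5 °C, ND96 pH 5.5 by default. Internal concentrations assumed ~400 nL oocyte volume.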
# PfNT1 = target: T4, PfNT1 (Plasmodium falciparum, UniProt Q8IDM6); assay: cell-based; type: cell-based; conditions: for activity at 5000 µM: total [3H]CQ transport
# T4 construct: expressed in transfected cells; host or cells: Xenopus laevis oocytes (stage V-VI), cRNA-injected
# Summary of the method: as §2
# PfCRT^Ecu1110 [7] = target: T2, PfCRT^Ecu1110; assay: cell-based; type: cell-based; conditions: […]
# Summary of the method: as §2
# PfCRT^3D7 [8] = target: T1, PfCRT^3D7; assay: cell-based; type: cell-based
# Summary of the method: as §2
# PfCRT^Dd2 [9] = target: T3, PfCRT^Dd2; assay: cell-based; type: cell-based; conditions: […]; for activity at 45000 µM: [test solute]i = 45 mM (30 mM for some solutes due to solubility)
# Summary of the method: as §2
# non-expressing oocytes [10] = assay: cells; type: cell-based, Xenopus laevis; conditions: Xenopus laevis, total [3H]CQ transport; for inhibition at 500 µM: [test solute] = 0.5 mM; for inhibition at 1000 µM: [test solute] = 1 mM; for inhibition at 2000 µM: [test solute] = 2 mM
# Summary of the method: as §1
# [11] = PfCRT3D7 oocytes, normalised to the oocyte type control, read-out: Uptake of [3H]CQ (% PfCRT3D7 control), cis-inhibition
# [12] = mean ± SEM, SEM, read-out: Uptake of [3H]CQ (% PfCRTDd2 control), cis-inhibition, PfCRT3D7
# [13] = read-out: PfCRT-mediated [3H]CQ transport, cis-inhibition (% PfCRTEcu1110 control)
# [14] = read-out: Uptake of [3H]CQ (% PfCRTDd2 control), cis-inhibition, PfCRTEcu1110, SEM
# [15] = read-out: Uptake of [3H]CQ (% PfCRTEcu1110 control), cis-inhibition
# [16] = read-out: [3H]CQ transport (% PfCRTEcu1110 control), cis-inhibition, PfCRTEcu1110, SEM
# [17] = read-out: PfCRT-mediated [3H]CQ transport, cis-inhibition (% PfCRTDd2 control)
# [18] = read-out: Uptake of [3H]CQ (% PfCRTDd2 control), cis-inhibition
# [19] = read-out: Uptake of [3H]CQ (% PfCRTDd2 control), cis-inhibition, PfCRTDd2, SEM
# [20] = read-out: [3H]CQ transport (% PfCRTDd2 control), cis-inhibition, PfCRTDd2, SEM
# [21] = Oocyte, mean ± SEM, SEM, read-out: Uptake of [3H]CQ (% PfCRTDd2 control), cis-inhibition, non-expressing oocytes
# [22] = non-expressing oocytes, normalised to the oocyte type control, read-out: Uptake of [3H]CQ (% non-expressing oocyte control), cis-inhibition
# T1 sequence (Q8IBZ9 59-398): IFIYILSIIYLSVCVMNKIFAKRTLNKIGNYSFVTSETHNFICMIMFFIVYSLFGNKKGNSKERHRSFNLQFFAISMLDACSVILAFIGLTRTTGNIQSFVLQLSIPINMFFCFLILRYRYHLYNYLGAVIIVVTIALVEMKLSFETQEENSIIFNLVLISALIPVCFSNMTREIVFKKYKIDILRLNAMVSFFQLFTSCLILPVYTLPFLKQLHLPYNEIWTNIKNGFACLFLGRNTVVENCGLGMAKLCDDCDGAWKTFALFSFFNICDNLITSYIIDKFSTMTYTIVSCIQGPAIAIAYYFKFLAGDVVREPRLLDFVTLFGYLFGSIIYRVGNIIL
# T3 sequence (Q9N623 whole entry A220S/I356T/K76T/M74I/N326S/N75E/Q271E/R371I): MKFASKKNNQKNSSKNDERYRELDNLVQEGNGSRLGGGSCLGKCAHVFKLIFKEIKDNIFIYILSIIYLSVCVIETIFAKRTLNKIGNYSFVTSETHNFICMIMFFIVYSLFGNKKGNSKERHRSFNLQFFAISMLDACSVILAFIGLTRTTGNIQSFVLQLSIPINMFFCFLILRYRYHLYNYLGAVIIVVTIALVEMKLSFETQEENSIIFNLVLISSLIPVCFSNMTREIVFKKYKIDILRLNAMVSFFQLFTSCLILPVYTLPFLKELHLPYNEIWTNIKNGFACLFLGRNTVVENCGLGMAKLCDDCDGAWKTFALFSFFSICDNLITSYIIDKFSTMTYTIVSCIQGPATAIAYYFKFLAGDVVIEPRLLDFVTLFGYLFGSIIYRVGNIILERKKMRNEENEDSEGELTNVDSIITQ
# T2 sequence (Q9N623 whole entry A220S/I356L/K76T/N326D): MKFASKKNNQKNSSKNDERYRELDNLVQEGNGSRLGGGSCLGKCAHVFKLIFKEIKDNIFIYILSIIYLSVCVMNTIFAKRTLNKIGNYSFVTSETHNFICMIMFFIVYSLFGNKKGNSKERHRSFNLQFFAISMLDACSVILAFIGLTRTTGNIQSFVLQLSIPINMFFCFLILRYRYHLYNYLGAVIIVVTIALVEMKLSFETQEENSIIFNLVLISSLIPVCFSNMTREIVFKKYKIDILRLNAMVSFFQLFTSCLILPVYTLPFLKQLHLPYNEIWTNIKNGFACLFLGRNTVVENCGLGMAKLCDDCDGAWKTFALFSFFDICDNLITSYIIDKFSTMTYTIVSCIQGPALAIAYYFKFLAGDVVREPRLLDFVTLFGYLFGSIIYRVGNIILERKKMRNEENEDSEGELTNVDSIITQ
# T4 sequence (Q8IDM6 whole entry): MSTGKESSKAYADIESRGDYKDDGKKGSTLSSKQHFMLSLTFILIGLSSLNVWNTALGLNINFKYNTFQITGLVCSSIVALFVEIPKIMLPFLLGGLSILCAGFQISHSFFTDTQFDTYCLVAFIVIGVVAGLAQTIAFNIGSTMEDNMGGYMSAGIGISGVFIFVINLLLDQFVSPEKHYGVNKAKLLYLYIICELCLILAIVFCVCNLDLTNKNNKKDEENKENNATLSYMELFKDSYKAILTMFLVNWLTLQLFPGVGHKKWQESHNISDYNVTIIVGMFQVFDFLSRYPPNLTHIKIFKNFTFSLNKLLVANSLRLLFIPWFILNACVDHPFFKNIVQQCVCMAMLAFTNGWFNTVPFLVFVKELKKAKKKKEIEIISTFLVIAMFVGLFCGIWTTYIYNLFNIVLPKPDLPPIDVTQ
smiles,measurement,setting,value
N[C@@H](CS)C(=O)O [L-cysteine],Tested as potential co-substrate but not required for influx of VF-6 via PfCRT into the oocyte,PfCRT [1],X
same,inhibition at 500 µM,PfCRT^3D7 [2]; [11],99 ± 3.2%
same,inhibition at 1000 µM,PfCRT^3D7 [2]; [11],100 ± 3.6%
same,inhibition at 2000 µM,PfCRT^3D7 [2]; [11],99 ± 4.2%
same,inhibition at 500 µM,PfCRT^3D7 [2]; [12],3.4 ± 0.05%
same,inhibition at 1000 µM,PfCRT^3D7 [2]; [12],2.5 ± 0.05%
same,inhibition at 2000 µM,PfCRT^3D7 [2]; [12],3.1 ± 0.08%
same,Tested as potential co-substrate but not required for influx of VF-6 via PfCRT into the oocyte,PfCRT [3],X
same,inhibition at 500 µM,PfCRT^Ecu1110 [4]; [13],94 ± 1.6%
same,inhibition at 1000 µM,PfCRT^Ecu1110 [4]; [13],87 ± 2.6%
same,inhibition at 2000 µM,PfCRT^Ecu1110 [4]; [13],98 ± 4.5%
same,inhibition at 500 µM,PfCRT^Ecu1110 [4]; [14],31 ± 1%
same,inhibition at 1000 µM,PfCRT^Ecu1110 [4]; [14],29 ± 1.5%
same,inhibition at 2000 µM,PfCRT^Ecu1110 [4]; [14],33 ± 1.4%
same,inhibition at 500 µM,PfCRT^Ecu1110 [4]; [15],95 ± 4.2%
same,inhibition at 1000 µM,PfCRT^Ecu1110 [4]; [15],89 ± 5.5%
same,inhibition at 2000 µM,PfCRT^Ecu1110 [4]; [15],100 ± 7.1%
same,inhibition at 500 µM,PfCRT^Ecu1110 [4]; [16],28 ± 1.1%
same,inhibition at 1000 µM,PfCRT^Ecu1110 [4]; [16],26 ± 1.5%
same,inhibition at 2000 µM,PfCRT^Ecu1110 [4]; [16],30 ± 1.7%
same,inhibition at 500 µM,PfCRT^Dd2 [5]; [17],94 ± 4.1%
same,inhibition at 1000 µM,PfCRT^Dd2 [5]; [17],95 ± 3.6%
same,inhibition at 2000 µM,PfCRT^Dd2 [5]; [17],95 ± 2.8%
same,inhibition at 500 µM,PfCRT^Dd2 [5]; [18],97 ± 9.2%
same,inhibition at 2000 µM,PfCRT^Dd2 [5]; [18],97 ± 3.1%
same,inhibition at 500 µM,PfCRT^Dd2 [5]; [19],97 ± 9.2%
same,inhibition at 1000 µM,PfCRT^Dd2 [5]; [19],96 ± 3.5%
same,inhibition at 2000 µM,PfCRT^Dd2 [5]; [19],97 ± 3.1%
same,inhibition at 1000 µM,PfCRT^Dd2 [5]; [20],95 ± 3.6%
same,inhibition at 2000 µM,PfCRT^Dd2 [5]; [20],95 ± 2.8%
same,"Uptake of [3H]CQ (% non-expressing oocyte control), trans-stimulation",non-expressing oocytes [6]; [test solute]i = 5 mM,98 ± 2.2 % non-expressing oocyte control
same,"Uptake of [3H]CQ (% non-expressing oocyte control), trans-stimulation",non-expressing oocytes [6]; [test solute]i = 45 mM (30 mM for some solutes due to solubility),100 ± 4.2 % non-expressing oocyte control
same,"Uptake of [3H]CQ (% PfCRTDd2 control), trans-stimulation, non-expressing oocytes",non-expressing oocytes [6]; [test solute]i = 5 mM (intracellular),3.1 ± 0.07 % PfCRTDd2 control
same,"Uptake of [3H]CQ (% PfCRTDd2 control), trans-stimulation, non-expressing oocytes",non-expressing oocytes [6]; [test solute]i = 45 mM (intracellular; 30 mM for some solutes due to solubility),2.2 ± 0.03 % PfCRTDd2 control
same,activity at 5000 µM,"PfNT1; PfNT1 oocytes, [test solute]i = 5 mM, normalised to the oocyte type control, read-out: Uptake of [3H]CQ (% PfNT1 control), trans-stimulation",98 ± 3.7%
same,activity at 45000 µM,"PfNT1; SEM, read-out: Uptake of [3H]CQ (% PfCRTDd2 control), trans-stimulation, PfNT1",2.6 ± 0.05%
same,activity at 45000 µM,"PfNT1; read-out: Uptake of [3H]CQ (% PfNT1 control), trans-stimulation",99 ± 3.2%
same,activity at 5000 µM,"PfNT1; [test solute]i = 5 mM (intracellular), mean ± SEM, SEM, read-out: Uptake of [3H]CQ (% PfCRTDd2 control), trans-stimulation, PfNT1",2.6 ± 0.08%
same,activity at 5000 µM,"PfCRT^Ecu1110 [7]; pH 5.5, read-out: PfCRT-mediated [3H]CQ transport, trans-stimulation (% PfCRTEcu1110 control), [test solute]i = 5 mM (intracellular), PfCRTEcu1110 oocytes, normalised to oocyte type control",95 ± 3%
same,activity at 5000 µM,"PfCRT^Ecu1110 [7]; pH 5.5, read-out: Uptake of [3H]CQ (% PfCRTEcu1110 control), trans-stimulation, PfCRTEcu1110 oocytes, [test solute]i = 5 mM, total [3H]CQ transport, normalised to the oocyte type control",97 ± 4.2%
same,activity at 45000 µM,"PfCRT^Ecu1110 [7]; pH 5.5, read-out: Uptake of [3H]CQ (% PfCRTEcu1110 control), trans-stimulation, PfCRTEcu1110 oocytes, [test solute]i = 45 mM (30 mM for some solutes due to solubility), total [3H]CQ transport, normalised to the oocyte type control",100 ± 3.5%
same,activity at 5000 µM,"PfCRT^Ecu1110 [7]; read-out: Uptake of [3H]CQ (% PfCRTDd2 control), trans-stimulation, PfCRTEcu1110, total [3H]CQ transport, [test solute]i = 5 mM (intracellular), mean ± SEM, SEM",35 ± 1.4%
same,activity at 45000 µM,"PfCRT^Ecu1110 [7]; read-out: Uptake of [3H]CQ (% PfCRTDd2 control), trans-stimulation, PfCRTEcu1110, total [3H]CQ transport, [test solute]i = 45 mM (intracellular; 30 mM for some solutes due to solubility), mean ± SEM, SEM",36 ± 2.7%
same,activity at 5000 µM,"PfCRT^3D7 [8]; PfCRT3D7 oocytes, [test solute]i = 5 mM, total [3H]CQ transport, normalised to the oocyte type control, read-out: Uptake of [3H]CQ (% PfCRT3D7 control), trans-stimulation",100 ± 2.4%
same,"[3H]CQ transport (% PfCRT3D7 control), trans-stimulation, PfCRT3D7",PfCRT^3D7 [8]; SEM,0.3 ± 0.02 % PfCRT3D7 control
same,activity at 5000 µM,"PfCRT^3D7 [8]; [test solute]i = 5 mM (intracellular), PfCRT3D7 oocytes, normalised to oocyte type control, read-out: PfCRT-mediated [3H]CQ transport, trans-stimulation (% PfCRT3D7 control)",98 ± 3.1%
same,activity at 45000 µM,"PfCRT^3D7 [8]; SEM, read-out: Uptake of [3H]CQ (% PfCRTDd2 control), trans-stimulation, PfCRT3D7",3.2 ± 0.08%
same,activity at 45000 µM,"PfCRT^3D7 [8]; read-out: PfCRT-mediated [3H]CQ transport, trans-stimulation (% PfCRT3D7 control)",94 ± 4.4%
same,activity at 45000 µM,"PfCRT^3D7 [8]; read-out: Uptake of [3H]CQ (% PfCRT3D7 control), trans-stimulation",96 ± 3.5%
same,activity at 5000 µM,"PfCRT^3D7 [8]; total [3H]CQ transport, [test solute]i = 5 mM (intracellular), mean ± SEM, SEM, read-out: Uptake of [3H]CQ (% PfCRTDd2 control), trans-stimulation, PfCRT3D7",3.3 ± 0.05%
same,activity at 5000 µM,"PfCRT^Dd2 [9]; pH 5.5, read-out: PfCRT-mediated [3H]CQ transport, trans-stimulation (% PfCRTDd2 control), [test solute]i = 5 mM (intracellular), PfCRTDd2 oocytes, normalised to oocyte type control",97 ± 2.6%
same,activity at 5000 µM,"PfCRT^Dd2 [9]; pH 5.5, read-out: Uptake of [3H]CQ (% PfCRTDd2 control), trans-stimulation, PfCRTDd2, total [3H]CQ transport, [test solute]i = 5 mM (intracellular), mean ± SEM, SEM",99 ± 3.2%
same,activity at 5000 µM,"PfCRT^Dd2 [9]; pH 5.5, read-out: Uptake of [3H]CQ (% PfCRTDd2 control), trans-stimulation, PfCRTDd2 oocytes, [test solute]i = 5 mM, total [3H]CQ transport, normalised to the oocyte type control",99 ± 3.2%
same,activity at 45000 µM,"PfCRT^Dd2 [9]; pH 5.5, read-out: Uptake of [3H]CQ (% PfCRTDd2 control), trans-stimulation, PfCRTDd2 oocytes, total [3H]CQ transport, normalised to the oocyte type control",101 ± 3.7%
same,activity at 5000 µM,"PfCRT^Dd2 [9]; pH 5.5, read-out: [3H]CQ transport (% PfCRTDd2 control), trans-stimulation, PfCRTDd2, trans-stimulation, [test solute]i = 5 mM (injected), PfCRT-mediated component (background subtracted), mean ± SEM, SEM",97 ± 2.6%
same,activity at 45000 µM,"PfCRT^Dd2 [9]; pH 5.5, read-out: [3H]CQ transport (% PfCRTDd2 control), trans-stimulation, PfCRTDd2, trans-stimulation, PfCRT-mediated component (background subtracted), mean ± SEM, SEM",99 ± 4.5%
same,inhibition at 500 µM,non-expressing oocytes [10]; [21],2.1 ± 0.08%
same,inhibition at 1000 µM,non-expressing oocytes [10]; [21],3.4 ± 0.01%
same,inhibition at 2000 µM,non-expressing oocytes [10]; [21],2.3 ± 0.1%
same,inhibition at 500 µM,non-expressing oocytes [10]; [22],99 ± 5.3%
same,inhibition at 1000 µM,non-expressing oocytes [10]; [22],100 ± 4.6%
same,inhibition at 2000 µM,non-expressing oocytes [10]; [22],99 ± 3.5%
